For test [1], the system named is trypsin. The experiment in a line: standard trypsin inhibition assay (microtest with chromogenic substrate S2444). Format: biochemical. The settings on record: fixed amount of trypsin, 20 min at 37° C.
Test [2] deals with trypsin. Described as above. Format: biochemical. The settings on record: fixed amount of trypsin, 20 min at 37° C. The procedure:
The activity of the four AAT proteins purified by the method of the invention was compared to that of a standard AAT preparation derived from serum in a standard trypsin inhibition assay. The assay measures the inhibitory capacity of α1 -antitrypsin toward trypsin. It consists of a microtest using the chromogenic substrate S2444 (L-pyroglutamylglycyl-L-arginine, p-nitroanilide hydrochloride, Kabi Diagnostica, Stockholm, Sweden). The polystyrene microtest plates were incubated for 1 hr with 1% bovine serum albumin and washed extensively with distilled water. α1 -antitrypsin at various concentrations was incubated with a fixed amount of trypsin for 20 min at 37° C. in a 200- 1 final reaction volume of 0.1 M Tris-HCl pH 8.2/0.15 M NaCl/0.01 M EDTA/0.5% polyethylene glycol, Mr 6000). Samples were cooled slowly at room temperature and then exposed to the chromogenic substrate (20 μl of aqueous solution of 0.003 M S2444). After 5 min at room temperature, the reaction was stopped with 50 μl of 50% acetic acid.
Absorbance was read at 405 nm in a micro-ELISA automatic reader (Dynatech AM120). Calibration curves were determined for both trypsin and α1 -antitrypsin. Samples to be assayed were diluted serially in reaction buffer.
This is another data set of the same source.

From US4629567A, “Alpha-1-antiprotease purification” (SmithKline-RIT, priority 1986, dated 1986) come the findings set out here.

As to “3: mature AAT (having N-met in place of the N-glu) expressed in yeast [Sample 3]”, the entries for the “Optical density (A410)” value in test [1] (AAT concentration 0.25 ug/ml), in test [1] (AAT concentration 0.50 ug/ml) and in test [1] (AAT concentration 1.50 ug/ml) were 0.95, 0.84 and 0.54, respectively. The figures for the “% inhibition of trypsin activity” value in test [2] (AAT concentration 0.25 ug/ml), in test [2] (AAT concentration 0.50 ug/ml) and in test [2] (AAT concentration 1.50 ug/ml) were 7%, 17% and 47%, respectively.
With “4: AAT from human plasma, purified by the method of the invention [Sample 4]”, the “Optical density (A410)” value in test [1] (AAT concentration 0.25 ug/ml) came out at 0.74; in test [1] (AAT concentration 1 ug/ml) it was 0.48; in test [1] (AAT concentration 2 ug/ml), 0.06. Further, the “% inhibition of trypsin activity” value in test [2] (AAT concentration 0.25 ug/ml) came out at 17%; in test [2] (AAT concentration 1 ug/ml), 46%; in test [2] (AAT concentration 2 ug/ml), 93%.
With “standard: standard AAT preparation derived from serum”, the “Optical density (A410)” value is “.78” in test [1] (AAT concentration 0.50 ug/ml); “.63” in test [1] (AAT concentration 1 ug/ml); “.32” in test [1] (AAT concentration 2 ug/ml); “.24” in test [1] (AAT concentration 2.50 ug/ml); “.17” in test [1] (AAT concentration 3.50 ug/ml); “.1” in test [1] (AAT concentration 4.50 ug/ml). Further, the “% inhibition of trypsin activity” value came to 11% in test [2] (AAT concentration 0.50 ug/ml); 33% in test [2] (AAT concentration 1 ug/ml); 66% in test [2] (AAT concentration 2 ug/ml); 74% in test [2] (AAT concentration 2.50 ug/ml); 82% in test [2] (AAT concentration 3.50 ug/ml); 90% in test [2] (AAT concentration 4.50 ug/ml).
